Activity calls are given as the source filed them. The calls are words filed in the database; no cut-off is given here.
Key:
[1] = tested on: BGC-823; assay: Induction of apoptosis in human BGC-823 cells assessed as increase in cleaved PARP expression at 0.15 to 0.6 uM incubated for 24 hrs by Western blot analysis; format: functional, cell-based; conditions: dose 0.15-0.6 µM
[2] = tested on: BGC-823; assay: Induction of apoptosis in human BGC-823 cells assessed as late apoptotic cells at 0.3 uM incubated for 24 hrs by annexin-V-FITC and PI staining based flow cytometry analysis (reference value: 0.6%); format: functional
[3] = tested on: BGC-823; assay: Induction of apoptosis in human BGC-823 cells assessed as necrotic cells at 0.15 uM incubated for 24 hrs by annexin-V-FITC and PI staining based flow cytometry analysis (reference value: 0.6%); format: functional
[4] = tested on: BGC-823; assay: Induction of apoptosis in human BGC-823 cells assessed as necrotic cells at 0.3 uM incubated for 24 hrs by annexin-V-FITC and PI staining based flow cytometry analysis (reference value: 0.6%); format: functional
[5] = tested on: BGC-823; assay: Induction of apoptosis in human BGC-823 cells assessed as necrotic cells at 0.6 uM incubated for 24 hrs by annexin-V-FITC and PI staining based flow cytometry analysis (reference value: 0.6%); format: functional
[6] = tested on: BGC-823; assay: Induction of apoptosis in human BGC-823 cells assessed as reduction in total number of cells at 0.15 to 0.6 uM incubated for 24 hrs by Hoechst 33342 staining based flourescence microscopy method; format: functional, cell-based; conditions: dose 0.15-0.6 µM
[7] = tested on: BGC-823; assay: Downregulation of Cdc2 protein expression in human BGC-823 cells at 0.15 to 0.6 uM incubated for 24 hrs by Western blot analysis; format: functional, cell-based; conditions: dose 0.15-0.6 µM
[8] = tested on: BGC-823; assay: Induction of cell cycle arrest in human BGC-823 cells assessed as accumulation of cells at S phase at 0.15 uM incubated for 24 hrs by PI staining based flow cytometry method (reference value: 26.01%); format: functional
[9] = tested on: BGC-823; assay: Induction of cell cycle arrest in human BGC-823 cells assessed as accumulation of cells at G2/M phase at 0.15 uM incubated for 24 hrs by PI staining based flow cytometry method (reference value: 22.86%); format: functional
[10] = tested on: BGC-823; assay: Induction of cell cycle arrest in human BGC-823 cells assessed as accumulation of cells at G2/M phase at 0.3 uM incubated for 24 hrs by PI staining based flow cytometry method (reference value: 22.86%); format: functional
[11] = Toxicity in athymic BALB/c nude mouse assessed as effect on liver at 1.5 mg/kg, ip measured after 21 days by H and E staining based histopathological analysis; format: organism-based; conditions: in vivo, 504 h, time 21 day
[12] = Toxicity in athymic BALB/c nude mouse assessed as effect on spleen at 1.5 mg/kg, ip measured after 21 days by H and E staining based histopathological analysis; format: organism-based; conditions: in vivo, 504 h, time 21 day
[13] = Toxicity in athymic BALB/c nude mouse assessed as effect on lung at 1.5 mg/kg, ip measured after 21 days by H and E staining based histopathological analysis; format: organism-based; conditions: in vivo, 504 h, time 21 day
[14] = tested on: BGC-823; assay: Antitumor activity against human BGC-823 cells xenografted in athymic BALB/c nude mouse assessed as reduction in mitosis at 1.5 mg/kg, ip measured after 21 days by H and E staining based analysis; format: functional, organism-based; conditions: time 21.0 day
[15] = tested on: BGC-823; assay: Antitumor activity against human BGC-823 cells xenografted in athymic BALB/c nude mouse assessed as increase in cell necrosis at 1.5 mg/kg, ip measured after 21 days by H and E staining based analysis; format: functional, organism-based; conditions: time 21.0 day

Structure (SMILES): CCOC(=O)c1cnn(CCCOC(=O)[C@]2(C)CC[C@]3(C)CC[C@]4(C)C5=CC=C6C(=CC(=O)C(O)=C6C)[C@]5(C)CC[C@@]4(C)[C@@H]3C2)c1
- Activity [1]: Active
- Activity [2]: 4.8%
- Activity [3]: 0.2%
- Activity [4]: 0.4%
- Activity [5]: 1.5%
- Activity [6]: Active
- Activity [7]: Active
- Activity [8]: 26.07%
- Activity [9]: 23.89%
- Activity [10]: 27.71%
- Activity [11]: Non-Toxic
- Activity [12]: Non-Toxic
- Activity [13]: Non-Toxic
- Activity [14]: Active
- Activity [15]: Active

Reference: ChEMBL document CHEMBL5120866, “Design and Synthesis of Novel Celastrol Derivatives as Potential Anticancer Agents against Gastric Cancer Cells” (J Nat Prod, 2022)
